The numbers were not newly measured in patent US20110262453A1, “Markers for Assessing the Susceptibility of Cancer to IGF-1R Treatment” (priority 2008, published 2011), which cites them from elsewhere.

As usually defined, the LD50 is the dose at which mortality reaches 50%.

One data set concerns the target IGF-1R over IR (Homo sapiens, UniProt P08069).
The subject of data set [1] is xenografted and allografted mice.
Data set [2] deals with cultured IGF-1R-positive tumor cells.
In the next data set the target is IGF-1R (Homo sapiens, UniProt P08069).
Sequence of IGF-1R (P08069 31-1367): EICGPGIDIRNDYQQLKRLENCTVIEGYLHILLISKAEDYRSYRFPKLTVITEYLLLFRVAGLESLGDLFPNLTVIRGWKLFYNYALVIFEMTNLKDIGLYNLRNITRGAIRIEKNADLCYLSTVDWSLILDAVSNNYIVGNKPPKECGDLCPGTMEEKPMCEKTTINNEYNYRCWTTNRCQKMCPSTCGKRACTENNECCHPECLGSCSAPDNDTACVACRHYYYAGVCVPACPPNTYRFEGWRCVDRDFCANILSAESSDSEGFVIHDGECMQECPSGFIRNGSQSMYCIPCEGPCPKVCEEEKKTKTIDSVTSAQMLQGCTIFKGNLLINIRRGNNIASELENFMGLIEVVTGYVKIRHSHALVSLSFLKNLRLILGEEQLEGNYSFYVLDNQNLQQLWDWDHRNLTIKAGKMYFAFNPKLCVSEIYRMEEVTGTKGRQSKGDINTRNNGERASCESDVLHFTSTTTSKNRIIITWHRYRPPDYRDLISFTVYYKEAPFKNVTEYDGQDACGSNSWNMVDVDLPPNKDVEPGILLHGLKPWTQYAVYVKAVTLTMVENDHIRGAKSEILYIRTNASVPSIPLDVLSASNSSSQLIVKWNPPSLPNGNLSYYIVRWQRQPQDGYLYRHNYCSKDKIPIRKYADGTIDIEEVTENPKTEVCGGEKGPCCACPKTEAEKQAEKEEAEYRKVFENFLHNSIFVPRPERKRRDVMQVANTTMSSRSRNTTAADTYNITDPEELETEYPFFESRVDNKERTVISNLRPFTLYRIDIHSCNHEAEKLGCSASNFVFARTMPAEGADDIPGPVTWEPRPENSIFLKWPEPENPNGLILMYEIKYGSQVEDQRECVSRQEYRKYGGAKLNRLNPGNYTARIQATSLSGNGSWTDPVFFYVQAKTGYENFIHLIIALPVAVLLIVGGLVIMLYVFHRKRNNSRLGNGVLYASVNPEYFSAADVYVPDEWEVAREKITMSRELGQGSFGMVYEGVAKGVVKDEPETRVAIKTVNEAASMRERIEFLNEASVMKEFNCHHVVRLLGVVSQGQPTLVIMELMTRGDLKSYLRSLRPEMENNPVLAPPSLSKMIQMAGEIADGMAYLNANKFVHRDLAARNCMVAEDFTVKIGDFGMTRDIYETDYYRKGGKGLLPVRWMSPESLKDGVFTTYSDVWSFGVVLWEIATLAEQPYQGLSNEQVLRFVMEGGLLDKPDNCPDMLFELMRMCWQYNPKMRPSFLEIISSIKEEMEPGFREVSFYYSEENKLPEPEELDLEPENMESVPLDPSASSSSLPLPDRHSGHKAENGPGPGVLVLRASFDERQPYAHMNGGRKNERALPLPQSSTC

Sequence of IGF-1R over IR (P08069 31-1367): as above

In the case of `Nc1ncnc2c1c(-c1cccc(OCc3ccccc3)c1)cn2C1CC(CN2CCC2)C1` (centres unmarked) [NVP-AEW541], the “selectivity towards IGF-1R over IR” value on IGF-1R over IR is recorded as 100 fold.

For `N#C/C(=C\c1ccc(O)c(O)c1)C(=O)c1ccc(O)c(O)c1` [AG538], the “selectivity towards IGF-1R over IR (in words)” value at IGF-1R over IR is “some selectivity”.

In the case of `CC(C)(C)c1cc(C=C(C#N)C#N)cc(Br)c1O` [AG1024], on IGF-1R over IR, the “selectivity towards IGF-1R over IR (in words)” value is on record as “some selectivity”.

For the molecule `COc1cc([C@@H]2c3cc4c(cc3[C@H](O)[C@H]3COC(=O)[C@@H]23)OCO4)cc(OC)c1OC` [PPP, picropodophyllin], the tumor regression entry in data set [1] was “complete tumor regression”. Further, in data set [2], the apoptosis result is recorded as “induced apoptosis”; the “pAkt and phosphorylated extracellular signal regulated kinase 1 and 2 (pErk1/2)” value is given as “reduced”. Besides, the LD50 with rodents is on record as greater than 500 mg/kg. Further, the IGF-1R activity result on IGF-1R is recorded as “efficiently blocked IGF-1R activity”.
